Values of other authors in US20070293552A1, “ANTIHYPERTENSIVE THERAPY METHOD” (priority 2006, published 2007).

Molecular target: T1, ETA (Homo sapiens, UniProt P25101)
T1 sequence (P25101 21-427): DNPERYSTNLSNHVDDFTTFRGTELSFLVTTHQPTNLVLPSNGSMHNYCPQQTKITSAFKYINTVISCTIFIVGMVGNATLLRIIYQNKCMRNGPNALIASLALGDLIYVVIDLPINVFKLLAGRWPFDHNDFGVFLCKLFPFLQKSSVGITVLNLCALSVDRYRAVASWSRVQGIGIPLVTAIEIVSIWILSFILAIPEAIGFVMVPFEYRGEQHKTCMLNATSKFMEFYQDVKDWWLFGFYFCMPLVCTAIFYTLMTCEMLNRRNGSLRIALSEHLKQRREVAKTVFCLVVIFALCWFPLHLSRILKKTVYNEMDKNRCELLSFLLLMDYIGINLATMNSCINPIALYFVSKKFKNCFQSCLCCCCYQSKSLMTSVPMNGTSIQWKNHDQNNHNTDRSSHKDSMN
Conditions: selectivity for ETA over ETB; reported by Wu et al. (2004) J. Med. Chem. 47, 1969-1986

In the case of CC(=O)c1cc(C)cc(C)c1NC(=O)c1sccc1S(=O)(=O)Nc1onc(C)c1C [TBC3711, N-(2-acetyl-4,6-dimethylphenyl)-3-(3,4-dimethylisoxazol-5-ylsulfamoyl)-thiophene-2-carboxamide], the ETA/ETB selectivity factor is listed as 441×10^3.
